Holding throughout (assay type): biochemical
Assay [1] addresses T1, human EGFR (d746-750/T790M/C797S) (Homo sapiens, UniProt P00533, C797S/DEL746-750/T790M).
T1 construct: made in house; host or cells: Sf9 insect cells, baculovirus
The assay can be described thus: Inhibitory activity against EGFR (d746-750/T790M/C797S) kinase. The note with it: Test Example 1, Table 2; ATP 6 μM, 25° C., 120 minutes. The protocol:
1) Measurement of inhibitory activity against EGFR (d746-750/T790M/C797S) kinase
The compounds of the above examples and comparative examples were measured for their inhibitory activity against EGFR (d746-750/T790M/C797S) kinase activity. Among the materials required for measurement of this inhibitory activity, the kinase protein (SEQ ID NO: 1) used was prepared as follows: the cytoplasmic domain of human EGFR (d746-750/T790M/C797S) fused at the ammo terminal end with a glutathione-S-transferase (GST) tag was expressed M insect cells (Sf9) by the baculovirus expression system and then purified an a glutathione sepharose column. For use as a substrate peptide, a peptide biotinylated at the N-terminal end (biotin -EEPLYWSFPAKKK) was synthesized by reference to Perkin Elmer LabChip® series reagent FL-Peptide 22.
Procedures for measurement of the inhibitory activity are as follows. First, the compounds of the present invention were each dissolved in dimethyl sulfoxide (DMSO), and their serial dilutions were then prepared with DMSO. Secondly, each compound serial dilution (final concentration of DMSO during kinase reaction: 2.5%) or DMSO (final concentration: 2.5%) was mixed with a solution containing the substrate peptide (final concentration: 250 nM), magnesium chloride (final concentration: 10 mM), manganese chloride (final concentration: 10 mM) and ATP (final concentration: 6 μM) in a kinase reaction buffer (Carna Biosciences Inc., Japan), and the EGFR (d746-750/T790M/C797S) protein was further added thereto, followed by incubation at 25° C. for 120 minutes to cause kinase reaction. To the reaction solution, EDTA was added to give a final concentration of 24 mM to thereby stop the reaction, followed by addition of a phospholylated tyrosine detection solution containing europium-labeled anti-phosphorylated tyrosine antibody PT66 (Perkin Elmer) and SureLight APC-SA (Perkin Elmer). The reaction solution was allowed to stand at room temperature for 2 hours or longer. As a background, DMSO was used instead of each compound solution in .DMSO, and EDIA was added prior to the addition of the EGFR EGFR (d746-750/T790M/C797S) protein, followed by incubation at 25° C. for 120 minutes. The same detection solution was also added to this reaction solution, which was then allowed to stand for 2 hours or longer. Finally, all the test samples were measured with a PHERAstar FS reader (BMG LABTECH) for their fluorescence intensity at two wavelengths of 620 nm and 665 nm upon irradiation with an excitation light of 337 nm wavelength, and the ratio of fluorescence intensities at these two wavelengths was obtained as data for each compound.
Moreover, as control compounds, the above Comparative Example A (Example 3 in WO2013/118817) and Comparative Example B (Example 35 in WO2013/118817) known to have EGFR inhibitory activity were used.
In accordance with the same procedures as shown in 1) in Test Example 1, the compounds of the above examples were measured for their inhibitory activity against EGFR (d746-750/T790M/C797S) kinase activity.

In assay [2] the target is T2, human EGFR (L858R/T790M/C797S) (Homo sapiens, UniProt P00533, C797S/L858R/T790M).
T2 construct: made in house; host or cells: Sf9 insect cells, baculovirus
The assay can be described thus: Inhibitory activity against EGFR (L858R/T790M/C797S) kinase. The following applies: Test Example 1, Table 3; ATP 0.5 μM. The protocol:
2) Measurement of inhibitory activity against EGFR (L858R/T790M/C797S) kinase
The compounds of the presein invention were measured for their inhibitory activity against EGFR (L858R/T790M/C797S) kinase activity.
The materials, measurement procedures and data analysis method used in this test are substantially the same as those shown in the section “Measurement of inhibitory activity against EGFR (d746-750/T790M/C797S) kinase.” However, among the materials, the kinase protein (SEQ ID NO: 2) used was prepared as follows: the cytoplasmic domain of human EGFR (L858R/T790M/C797S) fused at the amino terminal end with a GST tag was expressed in insect cells (Sf9) by the baculovirus expression system and then purified on a glutathione sepharose column. In the measurement procedures, the final concentration of ATP was set to 0.5 μM. Finally, data analysis was conducted to determine the IC50 value (nM) of each compound against EGFR (L858R/T790M/C797S).
In accordance with the same procedures as shown in 2) in Test Example 1, the compounds of the present invention were measured for their inhibitory activity against EGFR (L858R/T790M/C797S) kinase activity.

Assay [3] has as its target T3, human EGFR (d746-750/C797S) (Homo sapiens, UniProt P00533, C797S/DEL746-750).
T3 construct: purchased SignalChem
The assay can be described thus: Inhibitory activity against EGFR (d746-750/C797S) kinase. The following applies: Test Example 1, Table 4; ATP 14 μM, 60 minutes. The protocol:
3) Measurement of inhibitory activity against EGFR (d746-750/C797S) kinase
The compounds of the present invention were measured for their inhibitory activity against EGFR (d746-750/C797S) kinase activity.
The materials, measurement procedures and data analysis method used in this test are substantially the same as those shown in the section “Measurement of inhibitory activity aiainst EGFR (d746-750/T790M/C797S) kinase.” However, among the materials, the kinase protein used was a purified recombinant human EGFR (d746-750/C797S) protein purchased from SignalChem, while the kinase reaction buffer used was 13.5 mM Tris (pH 7.5) containing 2 mM dithiothreitol and 0.009% Tween-20. In the measurement procedures, the final concentration of ATP was set to 14 μM, the final concentration of maganesium chloride was set to 20 mM, the final concentration of manganese chloride was set to 12.5 mM, the incubation time for kinase reaction was set to 60 minutes, and the final concentration of EDTA used to stop the kinase reaction was set to 40 mM. Finally, data analysis was conducted to determine to IC50 value (nM) of each compound against EGFR (d746-750/C797S).
In accordance with the same procedures as shown in 3) in Test Example 1, the compounds of the present invention were measured for their inhibitory activity against EGFR (d746-750/C797S) kinase activity.

The target of assay [4] is T4, human EGFR (L858R/C797S) (Homo sapiens, UniProt P00533, C797S/L858R).
T4 construct: purchased SignalChem
The assay can be described thus: Inhibitory activity against EGFR (L858R/C797S) kinase. The note with it: Test Example 1, Table 5; ATP 4 μM, 90 minutes. The protocol:
4) Measurement of inhibitory activity against EGFR (L858R/C797S) kinase
The compounds of the present invention were measured for their inhibitory activity aeainst EGFR (L858R/C797S) kinase activity.
The materials, measurement procedures and data analysis method used in this test are stibstantially the same as those shown in the section “Measurement of inhibitory activity against EGFR (d746-750/C797S) kinase.” However, among the materials, the kinase protein used was a purified recombinant human EGFR (C797S/L858R) protein purchased from SignalChem. In the measurement procedures, the final concentration of ATP was set to 4 μM, and the incubation time for kinase reaction was set to 90 minutes. Finally, data analysis was conducted determine the IC50 value (nM) of each compound against EGFR (L858R/C797S).
In accordance with the same procedures as shown in 4) in Test Example 1, the compounds of the present invention were measured for their inhibitor activity against. EGFR (L858R/C797S) kinase activity.

Assay [5] concerns the target T5, human EGFR (WT) (Homo sapiens, UniProt P00533).
T5 construct: purchased Carna Biosciences Inc., Japan
Kind of assay: Inhibitory activity against EGFR (WT) kinase. The following applies: Test Example 1, Table 6; ATP 1.5 μM. As to the method:
The compounds of the present invention were measured for their inhibitory activity nainst EGFR (WT) kinase activity.
The materials, measurement procedures and data analysis method used in this test. are substantially the same as those shown in the section “Measurement of inhibitory activity against EGFR (d746-750/T790M/C797S) kinase.” However, among the materials, the kinase protein used was a purified recombinant human EGFR (WT) purchased from Carna Biosciences Inc., Japan. In the measurement procedures, the final concentration of ATP was set to 1.5 μM. Finally, data analysis was conducted to determine the IC50 value (nM) of each compound against EGFR (WT).
In accordance with the same procedures as shown in 5) in Test Example 1, the compounds of the present invention were measured for their inhibitory activity against. EGFR (WT) kinase activity.

Some results are limits rather than exact numbers.

T5 sequence (P00533 25-1210): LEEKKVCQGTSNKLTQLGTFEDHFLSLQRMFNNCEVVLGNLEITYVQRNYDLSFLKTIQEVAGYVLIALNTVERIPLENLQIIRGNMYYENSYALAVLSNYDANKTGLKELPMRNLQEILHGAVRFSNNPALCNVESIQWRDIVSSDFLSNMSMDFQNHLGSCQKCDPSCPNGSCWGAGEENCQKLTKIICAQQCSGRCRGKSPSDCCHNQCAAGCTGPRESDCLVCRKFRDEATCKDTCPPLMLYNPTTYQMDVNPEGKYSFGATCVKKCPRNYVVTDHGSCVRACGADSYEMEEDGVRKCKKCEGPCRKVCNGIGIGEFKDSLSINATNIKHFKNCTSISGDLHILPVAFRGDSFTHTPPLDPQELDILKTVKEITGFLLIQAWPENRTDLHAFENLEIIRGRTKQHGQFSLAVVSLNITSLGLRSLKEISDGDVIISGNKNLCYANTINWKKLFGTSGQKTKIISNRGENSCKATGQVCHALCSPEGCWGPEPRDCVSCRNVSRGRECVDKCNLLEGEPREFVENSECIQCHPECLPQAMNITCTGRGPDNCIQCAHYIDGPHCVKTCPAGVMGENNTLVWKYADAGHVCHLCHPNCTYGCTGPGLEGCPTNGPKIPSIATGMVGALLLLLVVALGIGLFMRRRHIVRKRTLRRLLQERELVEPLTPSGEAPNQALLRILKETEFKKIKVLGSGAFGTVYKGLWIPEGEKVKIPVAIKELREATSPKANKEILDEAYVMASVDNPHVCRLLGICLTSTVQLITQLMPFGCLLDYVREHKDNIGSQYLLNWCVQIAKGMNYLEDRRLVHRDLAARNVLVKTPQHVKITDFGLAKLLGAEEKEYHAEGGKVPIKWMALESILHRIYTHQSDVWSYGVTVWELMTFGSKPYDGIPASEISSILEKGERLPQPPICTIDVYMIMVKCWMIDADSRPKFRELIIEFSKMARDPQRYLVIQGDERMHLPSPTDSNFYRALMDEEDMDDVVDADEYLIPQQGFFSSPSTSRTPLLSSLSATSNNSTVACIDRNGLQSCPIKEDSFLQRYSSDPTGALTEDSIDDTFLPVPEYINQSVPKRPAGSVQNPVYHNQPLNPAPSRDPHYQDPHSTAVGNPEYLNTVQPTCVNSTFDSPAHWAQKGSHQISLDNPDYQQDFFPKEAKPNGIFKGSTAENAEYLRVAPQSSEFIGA
T1 sequence (P00533 with tags, fused parts or gaps DEL746-750/T790M/C797S): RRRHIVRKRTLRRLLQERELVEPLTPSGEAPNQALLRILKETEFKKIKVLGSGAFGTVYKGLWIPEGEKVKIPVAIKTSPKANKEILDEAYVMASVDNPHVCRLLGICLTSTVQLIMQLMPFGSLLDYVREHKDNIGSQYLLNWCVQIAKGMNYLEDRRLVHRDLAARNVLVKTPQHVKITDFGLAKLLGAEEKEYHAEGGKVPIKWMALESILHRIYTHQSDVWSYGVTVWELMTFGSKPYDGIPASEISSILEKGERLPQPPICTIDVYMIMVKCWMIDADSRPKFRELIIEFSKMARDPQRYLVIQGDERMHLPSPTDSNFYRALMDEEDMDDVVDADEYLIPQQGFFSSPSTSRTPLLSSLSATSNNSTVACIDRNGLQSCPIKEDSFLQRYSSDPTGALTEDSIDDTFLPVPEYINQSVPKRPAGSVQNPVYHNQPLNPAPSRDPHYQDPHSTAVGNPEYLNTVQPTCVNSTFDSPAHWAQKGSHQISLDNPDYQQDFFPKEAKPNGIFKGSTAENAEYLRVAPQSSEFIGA
T3 sequence (P00533 with tags, fused parts or gaps DEL746-750/C797S): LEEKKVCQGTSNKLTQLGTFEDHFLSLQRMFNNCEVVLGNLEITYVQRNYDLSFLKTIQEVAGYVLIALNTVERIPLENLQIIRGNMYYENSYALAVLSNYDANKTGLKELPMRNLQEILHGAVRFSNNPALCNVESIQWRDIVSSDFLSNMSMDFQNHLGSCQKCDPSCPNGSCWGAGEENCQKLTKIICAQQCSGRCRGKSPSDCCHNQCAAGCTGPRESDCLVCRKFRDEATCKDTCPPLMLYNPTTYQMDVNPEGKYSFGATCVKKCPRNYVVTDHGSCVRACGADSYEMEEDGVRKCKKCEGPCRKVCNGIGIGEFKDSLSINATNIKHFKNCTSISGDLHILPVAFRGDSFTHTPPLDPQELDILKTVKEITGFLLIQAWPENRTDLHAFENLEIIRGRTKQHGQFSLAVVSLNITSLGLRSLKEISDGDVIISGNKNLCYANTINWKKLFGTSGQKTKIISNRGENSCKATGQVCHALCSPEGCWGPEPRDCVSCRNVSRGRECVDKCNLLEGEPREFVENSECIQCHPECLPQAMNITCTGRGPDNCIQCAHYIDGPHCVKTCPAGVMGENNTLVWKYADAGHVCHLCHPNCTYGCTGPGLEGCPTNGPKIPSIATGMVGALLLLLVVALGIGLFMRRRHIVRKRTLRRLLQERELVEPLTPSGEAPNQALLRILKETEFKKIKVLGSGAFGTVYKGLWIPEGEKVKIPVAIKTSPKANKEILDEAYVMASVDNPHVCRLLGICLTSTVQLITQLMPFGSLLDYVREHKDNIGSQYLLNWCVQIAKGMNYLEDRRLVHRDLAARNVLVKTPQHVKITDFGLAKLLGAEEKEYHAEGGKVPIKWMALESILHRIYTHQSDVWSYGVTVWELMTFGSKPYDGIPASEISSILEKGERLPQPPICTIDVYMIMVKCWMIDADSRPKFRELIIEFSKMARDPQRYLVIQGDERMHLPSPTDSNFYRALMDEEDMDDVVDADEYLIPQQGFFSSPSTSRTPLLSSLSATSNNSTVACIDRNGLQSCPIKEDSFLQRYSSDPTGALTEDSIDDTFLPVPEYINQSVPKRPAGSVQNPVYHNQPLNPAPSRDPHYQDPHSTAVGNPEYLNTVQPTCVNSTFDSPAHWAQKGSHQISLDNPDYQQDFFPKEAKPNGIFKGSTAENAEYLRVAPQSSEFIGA
T4 sequence (P00533 25-1210 C797S/L858R): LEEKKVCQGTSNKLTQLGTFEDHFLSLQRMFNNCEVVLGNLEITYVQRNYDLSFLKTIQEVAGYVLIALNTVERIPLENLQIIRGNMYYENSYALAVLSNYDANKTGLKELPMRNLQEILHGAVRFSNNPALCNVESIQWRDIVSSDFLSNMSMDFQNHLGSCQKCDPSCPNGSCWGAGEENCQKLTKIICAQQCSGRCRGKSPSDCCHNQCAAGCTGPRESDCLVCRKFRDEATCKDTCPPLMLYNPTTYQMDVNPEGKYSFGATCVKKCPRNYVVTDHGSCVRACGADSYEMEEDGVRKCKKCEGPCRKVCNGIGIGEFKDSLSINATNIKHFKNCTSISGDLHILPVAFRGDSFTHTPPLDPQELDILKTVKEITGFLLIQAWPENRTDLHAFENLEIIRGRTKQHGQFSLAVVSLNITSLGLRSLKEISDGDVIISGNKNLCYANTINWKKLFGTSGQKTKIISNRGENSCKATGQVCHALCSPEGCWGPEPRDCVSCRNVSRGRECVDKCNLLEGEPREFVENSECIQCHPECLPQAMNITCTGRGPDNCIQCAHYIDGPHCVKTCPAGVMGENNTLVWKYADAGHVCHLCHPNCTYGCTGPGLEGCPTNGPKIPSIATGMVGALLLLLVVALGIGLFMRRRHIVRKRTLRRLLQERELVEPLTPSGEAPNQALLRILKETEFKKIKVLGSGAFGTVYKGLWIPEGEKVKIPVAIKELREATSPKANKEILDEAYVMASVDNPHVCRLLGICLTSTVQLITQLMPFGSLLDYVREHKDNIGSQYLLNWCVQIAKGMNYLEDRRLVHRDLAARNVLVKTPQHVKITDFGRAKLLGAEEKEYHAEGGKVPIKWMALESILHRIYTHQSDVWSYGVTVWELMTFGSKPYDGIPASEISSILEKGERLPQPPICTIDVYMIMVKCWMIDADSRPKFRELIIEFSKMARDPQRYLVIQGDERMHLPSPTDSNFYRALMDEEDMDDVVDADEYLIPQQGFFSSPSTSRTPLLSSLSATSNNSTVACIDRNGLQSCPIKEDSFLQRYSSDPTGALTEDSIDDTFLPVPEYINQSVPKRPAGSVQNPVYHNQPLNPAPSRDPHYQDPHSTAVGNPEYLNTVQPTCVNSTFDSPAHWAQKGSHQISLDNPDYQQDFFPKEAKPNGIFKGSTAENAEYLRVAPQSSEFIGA
T2 sequence (P00533 with tags, fused parts or gaps T790M/C797S/L858R): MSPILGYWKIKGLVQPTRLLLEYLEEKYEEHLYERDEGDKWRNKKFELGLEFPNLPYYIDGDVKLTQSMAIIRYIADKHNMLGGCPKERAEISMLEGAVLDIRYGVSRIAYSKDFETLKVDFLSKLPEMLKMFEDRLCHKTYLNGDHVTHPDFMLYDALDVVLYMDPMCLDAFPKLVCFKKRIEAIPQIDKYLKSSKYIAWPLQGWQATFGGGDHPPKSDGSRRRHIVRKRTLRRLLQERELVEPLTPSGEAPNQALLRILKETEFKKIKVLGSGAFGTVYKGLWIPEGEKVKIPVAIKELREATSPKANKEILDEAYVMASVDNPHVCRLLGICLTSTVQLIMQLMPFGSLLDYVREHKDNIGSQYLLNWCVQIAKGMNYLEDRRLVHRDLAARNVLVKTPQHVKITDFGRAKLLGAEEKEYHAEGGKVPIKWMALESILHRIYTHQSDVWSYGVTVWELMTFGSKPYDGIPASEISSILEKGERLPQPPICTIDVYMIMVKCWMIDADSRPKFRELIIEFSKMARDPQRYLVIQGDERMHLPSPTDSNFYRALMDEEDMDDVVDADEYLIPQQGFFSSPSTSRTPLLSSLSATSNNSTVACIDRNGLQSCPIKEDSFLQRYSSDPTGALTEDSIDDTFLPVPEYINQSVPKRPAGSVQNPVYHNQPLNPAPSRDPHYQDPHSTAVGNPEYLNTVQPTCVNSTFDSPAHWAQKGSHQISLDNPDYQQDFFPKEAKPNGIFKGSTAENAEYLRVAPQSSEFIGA

Take `C#Cc1c(-c2cnc3ccccc3c2)c2c(N)ncnc2n1C12CCC(NC(=O)c3cnnn3C)(CC1)C2` [Example 22, N-(4-(4-Amino-6-ethynyl-5-(quinolin-3-yl)-7H-pyrrolo[2,3-d]pyrimidin-7-yl)bicyclo-[2.2.1]heptan-1-yl)-1-methyl-1H-1,2,3-triazole-5-carboxamide]: the IC50 (commonly the concentration at which inhibition is half-maximal) in assay [1] was below 0.3 nM; in assay [2], 0.42 nM; in assay [3] it was below 0.3 nM; in assay [4] it was 0.35 nM; in assay [5], 0.55 nM.
As to `C#Cc1c(-c2cnc3ccccc3c2)c2c(N)ncnc2n1C12CCC(NC(=O)c3cncn(C)c3=O)(CC1)C2` [Example 25, N-(4-(4-Amino-6-ethynyl-5-(quinolin-3-yl)-7H-pyrrolo[2,3-d]pyrimidin-7-yl)bicyclo-[2.2.1]heptan-1-yl)-1-methyl-6-oxo-1,6-dihydropyrimidine-5-carboxamide], the IC50 in assay [1] is below 0.3 nM; in assay [2] it was 0.6 nM; in assay [3], 0.4 nM; in assay [4], 0.59 nM; in assay [5] it was 0.51 nM.
Consider `C#Cc1c(-c2cnc3ccccc3c2)c2c(N)ncnc2n1C12CCC(NC(=O)c3ccnn3-c3ccccc3)(CC1)C2` [Example 26, N-(4-(4-Amino-6-ethynyl-5-(quinolin-3-yl)-7H-pyrrolo[2,3-d]pyrimidin-7-yl)bicyclo-[2.2.1]heptan-1-yl)-1-phenyl-1H-pyrazole-5-carboxamide], for which the IC50 in assay [1] is below 0.3 nM; in assay [2], 0.62 nM; in assay [3], 0.71 nM; in assay [4], 0.84 nM; in assay [5], 2.1 nM.
For `C#Cc1c(-c2cnc3ccccc3c2)c2c(N)ncnc2n1C12CCC(NC(=O)COC)(CC1)C2` [Example 28, N-(4-(4-Amino-6-ethynyl-5-(quinolin-3-yl)-7H-pyrrolo[2,3-d]pyrimidin-7-yl)bicyclo-[2.2.1]heptan-1-yl)-2-methoxyacetamide], in that order: below 0.3 nM, 1.1 nM, 0.89 nM, 1.7 nM and 3.2 nM.
For `C#Cc1c(-c2cnc3ccccc3c2)c2c(N)ncnc2n1C12CCC(NC(=O)c3cc(CF)nn3C)(CC1)C2` [Example 29, N-(4-(4-Amino-6-ethynyl-5-(quinolin-3-yl)-7H-pyrrolo[2,3-d]pyrimidin-7-yl)bicyclo-[2.2.1]heptan-1-yl)-3-(fluoromethyl)-1-methyl-1H-pyrazole-5-carboxamide], in that order: below 0.3 nM, 0.31 nM, 0.32 nM, 0.39 nM and 0.62 nM.
For `C#Cc1c(-c2cnc3ccccc3c2)c2c(N)ncnc2n1C12CCC(NC(=O)c3cc(S(C)(=O)=O)ccn3)(CC1)C2` [Example 30, N-(4-(4-Amino-6-ethynyl-5-(quinolin-3-yl)-7H-pyrrolo[2,3-d]pyrimidin-7-yl)bicyclo-[2.2.1]heptan-1-yl)-4-(methylsulfonyl)picolinamide], the concentration for half-maximal inhibition (IC50) is below 0.3 nM in assay [1]; 0.33 nM in assay [2]; 0.64 nM in assay [3]; 1.2 nM in assay [4]; 1.9 nM in assay [5].
In the same order, the values of `C#Cc1c(-c2cnc3ccccc3c2)c2c(N)ncnc2n1C12CCC(NC(=O)c3cnccc3OC)(CC1)C2` [Example 31, N-(4-(4-Amino-6-ethynyl-5-(quinolin-3-yl)-7H-pyrrolo[2,3-d]pyrimidin-7-yl)bicyclo-[2.2.1]heptan-1-yl)-4-methoxynicotinamide] are below 0.3 nM, 0.52 nM, 0.49 nM, 0.62 nM and 1.5 nM.
For `C#Cc1c(-c2cnc3ccccc3c2)c2c(N)ncnc2n1C12CCC(NC(=O)c3cncc(C#N)c3)(CC1)C2` [Example 34, N-(4-(4-Amino-6-ethynyl-5-(quinolin-3-yl)-7H-pyrrolo[2,3-d]pyrimidin-7-yl)-bicyclo-[2.2.1]heptan-1-yl)-5-cyanonicotinamide], in that order: below 0.3 nM, below 0.3 nM, 0.46 nM, 0.45 nM and 0.84 nM.
